Assay results as given in patent publication US12599666B2, “Photolytic compounds and triplet-triplet annihilation mediated photolysis” (University of Massachusetts, priority 2019, dated 2026).
“And” between values parts separate entries of the source, which are not always exact repeats. Equal values may be shown once. Marks after values point to notes of the source that are not given here.

Assays:
[1] = Photolytic molecule experiment: TTAP photolytic reaction in solution under LED, HPLC yield; format: physicochemical; details: for Yield (HPLC) of photolytic reaction: 1 h
Procedure: Photolytic molecule experiment: The NIR LED (720 nm), far red LED (650 nm), green LED (530 nm), blue LED (476 nm) and deep blue (455 nm) were used for photolytic reactions. […] Then, the solution was excited with a LED (20 mW/cm^2) at 37° C. After the photolytic reaction, the raw product was dried and re-dissolved in CH3CN/H2O=(2/1, v/v) and HPLC was used to analyze the yield of product.

[2] = Stern-Volmer photoluminescence quenching of photosensitizers by PPGs-X; format: physicochemical
Procedure: The Stern-Volmer quenching plots experiment (ksv): photoluminescence of photosensitizers (PtTNP, PdTPBP, PtOEP, and Ir(ppy)3) in the presence of different concentrations of PPGs (BDP, perylene, anthracene and coumarin). The mixed solutions were degassed for at least 15 min with Ar in toluene. The ksv constants were calculated with eq 1, where 1o and It stand for photoluminescence intensity of photosensitizer in the absence of PPGs-X and the photoluminescence intensity of photosensitizer in the presence PPGs-X. Q is the concentration of PPGs-X. Biomolecular quenching constants (kq) were calculated by eq2. The Tr is the phosphorescence lifetime of photosensitizer in argon.

[3] = TTA upconversion quantum yield; format: physicochemical; details: paired with PtOEP
Procedure: The upconversion quantum yields (ΦUC): The upconversion quantum yields were calculated with the eq 3, where ΦUC and Φstd stand for upconversion luminescence quantum yield of sample TTA-UC and fluorescence quantum yield of reference compounds, respectively. Aunk and Astd stand for absorbance of the TTA-UC and reference compound, respectively. Iunk and Istd stand for integrated upconversion luminescence intensity of the TTA-UC and fluorescence intensity of reference compounds, respectively. ηunk and μstd stand for the refractive index of water. The equation is multiplied by a factor of 2 to make the maximum quantum yield of two unified emitters.
The upconversion experiments were deaerated with argon for ca. 15 min before measurement and the argon gas flow was kept during the measurement.

[4] = Photophysical parameters of Sen and PPGs (UV-vis absorption, emission, energy levels); format: physicochemical; set-up: λabs maximum absorption wavelength / λem maximum emission wavelength: unit not given here
Procedure: Characterization: ^1H NMR spectra were recorded with a Bruker 500 MHz spectrometer. UV-Vis spectra were recorded on an Agilent Cary-5 spectrophotometer. Steady-state fluorescence spectra were measured on a HITACHI F-7000 spectrometer. […] The sample for TEM measurement was prepared by dropping the solution onto a carbon-coated copper grid following negative staining with 2.0% (w/v) phosphotungstic acid. The particle size and size distribution were measured by using dynamic light scattering (DLS) on a Malvern Nano-ZS particle size analyzer, excitation wavelength 532 nm. All samples in the Stern-Volmer quenching plots experiments were deaerated with argon for ca. 15 min before measurement and the gas flow was maintained during the measurements. For the TTA upconversion spectra measurement, the diode pumped solid-state laser (650 nm, continues wave, CW, Hi-Teach company, China) was used as the excitation light source and a modified spectrofluorometer was used to record the upconversion spectra. For the prodrug photolytic experiment, an All LED (Mightex Company) was used as the excitation light source.
From the absorption and emission spectra of Sen and PPGs, the triplet and singlet energy levels of PPG and Sen can be calculated. The maximum emission wavelength of phosphorescence is the triplet excited state energy level (T1) of the Sen. The maximum emission wavelength of fluorescence is the singlet excited state energy level (S1) of the PPGs. Moreover, according to the literature, we know the triplet excited energy levels of PPGs. The detail information is always in […]

[5] = PPGs; from the literature; listed as An; cited from earlier work
[6] = Photocleavage quantum yield / photolytic quantum efficiency calculation; details: for ε2 × Φp: ε (Sen) × Φp (PPGs); ηp (TTAP): PtOEP as sensitizer; for ε1 × Φp: ε (PPGs) × Φp (PPGs); ηp (direct): direct short wavelength illumination
Description: We compared photolytic quantum efficiency of the widely used PPG of Cou by using the UCNPs as phototransducer.

In the case of `CC(=O)OCc1c2ccccc2cc2ccccc12` [compound 2], the “Yield (HPLC) of photolytic reaction” value ([1]; PtOEP, dark, argon) is reported as “No reaction”, the photolytic yield ([1]; PtOEP, green LED light (20 mW/cm^2, 532 nm)) is reported as 83% and the “Yield (HPLC) of photolytic reaction” value ([1]; PtOEP, light, air) is reported as “Trace”. The “Yield (HPLC) of photolytic reaction” value ([1]; PtOEP, light, argon) was 83.2%, the “Yield (HPLC) of photolytic reaction” value ([1]; compound only (no PtOEP), green light, argon) was “No reaction” and the “quenching of the photoluminescence of PtOEP” value ([2]; PtOEP) was “significant quenching”. The “ksv (bimolecular quenching constant)” value ([2]; PtOEP as sensitizer) was 2.43 × 10^9 j M^−1S^−1, the “ksv Stern-Volmer quenching constant” value ([2]; PtOEP as sensitizer) was 219000 J/M and the upconversion quantum yield [3] was 8.7%. For the same molecule, the “2 × T1 − S1” value ([4]; PPGs) was 0.53 eV, the “S1 singlet excited state” value ([4]; PPGs, from maximum fluorescence emission) was 3.02 eV and the “λabs maximum absorption wavelength” value ([4]; in toluene, 10 μM) was 366. For the same molecule, the “λem maximum emission wavelength” value ([4]; in toluene, 10 μM) was 411, the “ξ molar extinction coefficient” value ([4]; in toluene, 10 μM) was 1.1 10^4 M^−1 cm^−1 and the “T1 triplet excited state” value [5] was 1.77 ^n eV and 1.77 eV. The “increase of ηp (TTAP) over ηp (direct)” value ([6]; PtOEP) was 638%, the “ε2 × Φp: ε (Sen) × Φp (PPGs); ηp (TTAP)” value [6] was 6230 ^j and the “ε2 × Φp: ε (Sen) × Φp (PPGs); ηp (TTAP)” value ([6]; listed as An) was 6230. For the same molecule, the “ε1 × Φp: ε (PPGs) × Φp (PPGs); ηp (direct)” value [6] was 979 and the “ε1 × Φp: ε (PPGs) × Φp (PPGs); ηp (direct)” value ([6]; listed as An) was 976.
